Paper PMC10182601, “Biological evaluation of novel gemcitabine analog in patient-derived xenograft models of pancreatic cancer” (BMC Cancer, 2023)

Legend:
[1] = Stability of 4NSG in PBS (pH 7.4); format: physicochemical; details: 4NSG 10 µM, PBS pH 7.4, 37 °C, end of the 4 h study
Procedure: (§1) The metabolic stability of 4NSG was examined in the presence of PBS (pH 7.4) and human liver microsomes as previously described. Human liver microsomes were obtained from Sigma-Aldrich. 4NSG (10 µM) was spiked into PBS, or liver microsomes (1 mg protein/mL) and incubated in a shaking water bath at 37 °C for […]. Aliquots (100 µL) were taken after 0, 15, 30, 60, 120, 180, 220 and 240 min of incubation and immediately pretreated with an ice-cold methanolic solution including the internal standard, vortexed for 3 min and centrifuged (12,000 × g, 10 min). Supernatants were stored at -80 C until required for analysis.
(§2) To determine concentrations of 4NSG in PBS and human liver microsomes solutions, supernatants from PBS and human liver microsomes controls were spiked with aliquots of 0.5 μg/ml of 4NSG. The chromatographic analysis was performed according to the method described with minor modifications. The samples were prepared using aliquots of supernatants (10µL) of control (spiked), PBS, and human liver microsomes. […] A plot of the peak areas as a function of 4NSG concentration was plotted, and the linear equation of the calibration curve given as y = mx + c was determined, where y is the peak area, m is the slope, x is the concentration of 4NSG, and c is the y—intercept.

[2] = system: pancreatic patient-derived xenograft (PDX) mouse model; set-up: method as in PMID 33015617; details: earlier work of the authors ref 22; cited from earlier work
[3] = In vitro metabolic stability of 4NSG in human liver microsomes; format: in vitro ADME; details: 4NSG 10 µM, liver microsomes 1 mg protein/mL, 37 °C, end of the 4 h study
Procedure: as §1, §2

[4] = In vitro release of 4NSG (dialysis bag, PBS pH 7.4); format: physicochemical; details: PBS pH 7.4, 37 °C
Procedure: Cumulative in vitro drug release studies were performed as previously described. Free 4NSG (3 mg), freshly prepared and lyophilized 4NSG-SLNs containing approximately 5 mg (suspended in 2 mL PBS) were placed in dialysis bags with molecular weight cut-off (MWCO) of 3.5 kDa) and immersed in their respective labeled 15 mL PBS, (pH 7.4) as the release medium and incubated at 37 °C. The free 4NSG, freshly prepared and lyophilized 4NSG-SLNs solutions were gently stirred at 100 rpm 1 mL aliquots were withdrawn and replenished with fresh PBS (maintained at 37 °C) at 0, 1, 2, 4, 8, and 12 h for analysis. The samples were analyzed for the presence of 4NSG using the HPLC system previously described under the HPLC analysis of 4NSG of the in vitro metabolic stability of the 4NSG section.

PPCL-135 cells = test: Cell viability (resazurin/Alamar blue), PPCL-135; format: cell-based; details: Homo sapiens; 48 h treatment
Procedure: (§3) PCa primary cell were cultured with Dulbecco's modified Eagle medium (DMEM) with high glucose and L-glutamine and supplemented with 10% fetal bovine serum (FBS) and 1% penicillin–streptomycin (PenStrep). Briefly, PPCL-192, PPCL-135, PPCL-46, and PPCL-68 were seeded at a density of 1 × 10^3 per well in 96-well plates in triplicates for each drug concentration level and incubated at 5% CO2 and a temperature of 37 °C [32]. At 70 -75% confluency, PPCL-192, PPCL-135, PPCL-46, and PPCL-68 cells were treated with GemHCl, 4NSG-free SLN, and 4NSG-SLN. Varying concentrations of 4NSG-SLN and 4NSG-free SLN were prepared by diluting their stock solutions with a growth medium. For GemHCl, a stock solution was prepared with phosphate-buffered saline (PBS) and serially diluted with a growth medium to prepare different concentrations: 3, 6, 12, 25, 50, and 100 µM. The cells were treated with 100 µL of each drug concentration in triplicates and incubated for 48 h. At termination, 20 µL of 0.05% resazurin sodium salt (Alamar blue®) was added and incubated at optimum conditions (5% CO2, 37 °C) for 2–4 h. GloMax® Explorer Multimode Microplate reader with a fluorescence excitation wavelength of 560/580 nm and emission wavelength of 590/610 nm was used to determine the percent viable cells per concentration calculated.

[5] = background statement of the introduction, no reference printed with it; cited from earlier work
PPCL-192 cells = test: Cell viability (resazurin/Alamar blue), PPCL-192; format: cell-based; details: Homo sapiens; 48 h treatment
Procedure: as §3

PPCL-68 cells = test: Cell viability (resazurin/Alamar blue), PPCL-68; format: cell-based; details: Homo sapiens; 48 h treatment
Procedure: as §3

PPCL-46 cells = test: Cell viability (resazurin/Alamar blue), PPCL-46; format: cell-based; details: Homo sapiens; 48 h treatment
Procedure: as §3

Row | SMILES | metabolic stability of 4NSG in PBS [1] [%] | morphological changes to mice's liver and kidney tissues [2] | tumor growth in pancreatic PDX mouse model [2] | percent unchanged 4NSG in human liver microsomal solution [3] | further 4NSG release in the next 2 h ([4]; 2 h to 4 h, dialysis bag) [%] | cumulative 4NSG release within the first 2 h ([4]; dialysis bag MWCO 3.5 kDa) | IC50 (PPCL-135 cells) [µM] | plasma circulation half-life [5] [min] | IC50 (PPCL-192 cells) [µM] | IC50 (PPCL-68 cells) [µM] | IC50 (PPCL-46 cells) [µM]
1 | CCCCCCCCCCCCCCCCCC(=O)Nc1ccn([C@@H]2OC(CO)C(O)C2(F)F)c(=O)n1 (some centres unmarked) [4NSG, 4-(N)-stearoyl-gemcitabine] | 99 | no morphological changes | remarkably reduced tumor growth | about 90% | 20 | about 60% | – | – | – | – | –
2 | Nc1ccn([C@@H]2O[C@H](CO)[C@@H](O)C2(F)F)c(=O)n1 [Gem, Gemcitabine] | – | – | – | – | – | – | 56 ± 1.5 | < 15 | 57 ± 1.5 | 57 ± 2.4 | 56 ± 1.8
